According to US20080070939A1, “LOCAL […] COMPOSITIONS CONTAINING DEXTROROTATORY MORPHINAN DERIVATIVES OR PHARMACEUTICALLY ACCEPTABLE SALTS THEREOF” (CHI MEI FOUNDATION HOSPITAL, priority 2006, published 2008):
Where a name gives a salt, the structure may show the parent alone. Read-outs that look alike come from different tables or passages of the source.

What was measured:
sciatic nerve = test: Sciatic nerve blockade after injection at the sciatic nerve notch in rats; format: in vivo; set-up: AUC of time-% PE curve, sciatic nerve blockade of motor function / AUC of time-% PE curve, sciatic nerve blockade of proprioception / AUC of time-% PE curve, sciatic nerve blockade of nociceptive reaction: unit not given beside the values; conditions: for ED50: Rattus norvegicus
Procedure: Male Sprague-Dawley rats (weighing about 300 to 350 g); for each dose of each drug, n=6.
In brief, the rats were slightly anesthetized by inhalation of a low concentration of sevoflurane. Then, 200 μL of tested drugs were injected at the sciatic nerve notch at the left hind limb of the rat using a 27-gauge needle connected to a tuberculin syringe (Becton Dickinson, USA, model BND309623-BX). Thereafter, development of sciatic nerve blockade was observed from the paralysis of the left hind limb of the rat. The right hind limb served as a control during the subsequent functional assay
For proprioception, the front half of the rat body and the right hind limb were off the ground at the same time so that the rat was standing on the left hind limb during the measurement.
The differences resided in that: The sciatic nerve notch injections of ED25, ED50 and ED75 were conducted based on the method described in the preceding section “A. Drug injection” of this example. Evaluations of motor function, proprioception and nociceptive reaction were conducted based on the method described in section “B. Neurobehavioral evaluations” of this example.
The differences resided in that: Before the statistical analysis, Shapiro-Wilk test was used to evaluate whether the data were, theoretically, normally distributed.

Male Sprague-Dawley rats = test: Infiltrative cutaneous anesthesia (inhibition of cutaneous trunci muscle reflex, CTMR) after subcutaneous injection in rats; format: in vivo
Procedure: Male Sprague-Dawley rats (weighing about 200 to 250 g); for each dose of each drug, n=8.
In brief, hairs on the dorsal surface (about 10×10 cm^2) of the thoracolumbar region of the rat were shaved, and the shaved surface was sterilized with iodine for preparation. To reduce the number of animals used, the back of the rat was further divided into left and right parts. One drug was injected first at the right part. After a washout period of one week, another drug was injected at the left part.
0.6 mL of drug was injected subcutaneously under the dorsal surface of the thoracolumbar region of the rat using a 30-gauge needle attached to a syringe (Becton Drive, Franklin Lakes, USA). The subcutaneous injection would result in a circular elevation (i.e., a wheal) of the skin, about 2 cm in diameter. The elevation was marked with ink within 1 minute after injection.
CTMR refers to the reflex movement of the skin of the back caused by twitching of the lateral thoracispinal muscle in response to local dorsal cutaneous stimulation. Essentially, a von Frey filament (No.15; Somedic Sales AB, Sweden) to which a cut end of an 18-gauge needle was affixed was used to produce a standard nociceptive stimulus (strength: 19 g). Six pinpricks (at a frequency of 0.5-1 Hz) were applied to a single marked wheal during each test. […] For example, absence of any response to all of the 6 pinpricks was defined as a complete nociceptive block (i.e., 100% MPE).
The difference resided in that subcutaneous injections of ED25, ED50 and ED75 of the drugs were performed based on the method described in the section “A. Drug injection” of this example, and evaluation of the infiltrative cutaneous anesthetic effect was performed based on the method described in the section “B. Neurobehavioral evaluation” of this example.

[1] = Systemic safety indices: mortality 24 hours after intraperitoneal injection in rats; conditions: rat, in vivo, ip
Procedure: (§1) Essentially, each drug was injected intraperitoneally into the rats (n=8). The number of dead rats was observed after 24 hours, and the rate of mortality (%) was calculated. Thereafter, the doses of each drug and the relative mortality were plotted to obtain dose-mortality curves of the drugs. […] The safety index (LD50/ED50) of each drug was calculated using the LD50 thus obtained and the ED50 obtained in the section “C. Potency evaluation” of this example.

rats = test: as above
Procedure: as §1

[2] = dosage of 6.7 mg/kg, sciatic nerve notch injection, rats
[3] = rats, 2ED50 when administered independently, ED50 of each drug when co-administered, mean ± SEM
[4] = same effective doses (ED25, ED50 or ED75), rats
[5] = infiltrative cutaneous anesthesia, rats, 2ED50 when administered independently, ED50 for co-administration, mean ± SEM
[6] = infiltrative cutaneous anesthesia, subcutaneous injection, rats
[7] = subcutaneous dose of ED75, rats, mean±SEM

Question: What does the source list for `COc1ccc2c(c1)[C@]13CCCC[C@@H]1[C@H](C2)N(C)CC3` [Dextromethorphan hydrobromide monohydrate]?
Answer: sciatic nerve blocking effect on nociceptive reaction compared with motor function (sciatic nerve; ED50 basis, p<0.01, rats): more potent sciatic nerve blocking effect on nociceptive reaction than on motor function; ED50 (sciatic nerve; read-out: Mean ED50): 3.72 mg/kg; ED50 (sciatic nerve; read-out: Motor function ED50 (95% CI)): 3.95 mg/kg; ED50 (sciatic nerve; read-out: Nociceptive reaction ED50 (95% CI)): 3.49 mg/kg; ED50 (sciatic nerve; read-out: Proprioception ED50 (95% CI)): 3.73 mg/kg; % MPE of sciatic nerve blockade of motor function (sciatic nerve; [2]): about 71±7 % MPE; % MPE of sciatic nerve blockade of nociceptive reaction (sciatic nerve; [2]): ~83±11 % MPE; % MPE of sciatic nerve blockade of proprioception (sciatic nerve; [2]): ~78±7 % MPE; duration of sciatic nerve blockade of motor function (sciatic nerve; [2]): about 77±10 minutes; duration of sciatic nerve blockade of nociceptive reaction (sciatic nerve; [2]): ~85 ± 11 min; duration of sciatic nerve blockade of proprioception (sciatic nerve; [2]): ~78 ± 8 min; effect of co-administration with lidocaine hydrochloride on sciatic nerve blockades (sciatic nerve; rats, ED50 of each drug): additive effect; AUC of time-% PE curve, sciatic nerve blockade of motor function (sciatic nerve; [3]): 4056 ± 212; AUC of time-% PE curve, sciatic nerve blockade of nociceptive reaction (sciatic nerve; [3]): 6295 ± 643; AUC of time-% PE curve, sciatic nerve blockade of proprioception (sciatic nerve; [3]): 5498 ± 507; duration of sciatic nerve blockade compared with lidocaine hydrochloride (sciatic nerve; [4]): longer reaction duration; ED50 (Male Sprague-Dawley rats; Rattus norvegicus, sc, infiltrative cutaneous anesthesia, subcutaneous injection, rats, read-out: ED50 (95% CI)): 2.05 mg/kg; % MPE (Male Sprague-Dawley rats; [5]): 67 ± 8 % MPE; AUC (% min.) (Male Sprague-Dawley rats; [5]): 2300 ± 440 % min.; Duration (Male Sprague-Dawley rats; [5]): 58 ± 4 min; ED25 (Male Sprague-Dawley rats; [6]): 1.35 mg/kg; ED75 (Male Sprague-Dawley rats; [6]): 3.11 mg/kg; duration of cutaneous anesthesia compared with lidocaine hydrochloride (Male Sprague-Dawley rats; [4]): longer duration; % MPE of cutaneous nociceptive block (Male Sprague-Dawley rats; [7]): 71±8 % MPE; duration of cutaneous nociceptive block (Male Sprague-Dawley rats; [7]): approximately 50±5 minutes; effect of co-administration with lidocaine hydrochloride on cutaneous nociceptive blockade (Male Sprague-Dawley rats; subcutaneous, rats, ED50 of each drug): additive effect; LD50 at 24 h [1]: 138 mg/kg; systemic safety index relative to that of lidocaine hydrochloride (rats; LD50/ED50, rats): 2.4 times; safety index LD50/ED50 (rats; LD50 intraperitoneal / ED50 of infiltrative cutaneous anesthesia, rats): 67.3
